Results reported in the supplement of paper PMC8967900.

Tests used:
Test in all cases: selective drug sensitivity score (sDSS, relative to normal bone marrow) (sDSS (score)); higher = more potent and effective on the cell line relative to normal bone marrow cells
Details in all cases: 72 h
TANOUE = system: TANOUE
P12-ICHIKAWA = system: P12-ICHIKAWA
380 = system: 380
COG-LL-394h = system: COG-LL-394h
HPB-ALL = system: HPB-ALL
ALL-PO = system: ALL-PO
KARPAS-45 = system: KARPAS-45
CCRF-CEM = system: CCRF-CEM
MOLT-16 = system: MOLT-16
697 = system: 697
SUP-B15 = system: SUP-B15
TMD5 = system: TMD5
RCH-ACV = system: RCH-ACV
COG-LL-355h = system: COG-LL-355h
P30-OHKUBO = system: P30-OHKUBO
NALM-16 = system: NALM-16
SEM cells = system: SEM cells
MOLT-14 = system: MOLT-14
COG-LL-402h = system: COG-LL-402h
RPMI-8402 = system: RPMI-8402
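Note: ALL cell lines in 384-well plates, five doses spanning 10,000-fold, each plate scaled between vehicle and 100 µmol/L benzalkonium chloride controls, sDSS an adapted area-under-curve metric.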

Row | SMILES | selective drug sensitivity score (TANOUE) | selective drug sensitivity score (P12-ICHIKAWA) | selective drug sensitivity score 380 | selective drug sensitivity score (COG-LL-394h) | selective drug sensitivity score (HPB-ALL) | selective drug sensitivity score (ALL-PO) | selective drug sensitivity score (KARPAS-45) | selective drug sensitivity score (CCRF-CEM) | selective drug sensitivity score (MOLT-16) | selective drug sensitivity score 697 | selective drug sensitivity score (SUP-B15) | selective drug sensitivity score (TMD5) | selective drug sensitivity score (RCH-ACV) | selective drug sensitivity score (COG-LL-355h) | selective drug sensitivity score (P30-OHKUBO) | selective drug sensitivity score (NALM-16) | selective drug sensitivity score (SEM cells) | selective drug sensitivity score (MOLT-14) | selective drug sensitivity score (COG-LL-402h) | selective drug sensitivity score (RPMI-8402)
1 | COc1cc(Nc2ncc(F)c(Nc3ccc4c(n3)N(COP(=O)(O)O)C(=O)C(C)(C)O4)n2)cc(OC)c1OC [Fostamatinib] (top concentration 2500 nM) | -1.94 | -2.84 | -2.84 | -1.54 | -1.94 | 8.06 | 4.56 | -2.34 | -2.84 | 3.16 | 0.96 | -2.84 | 7.96 | 1.96 | 2.96 | -1.44 | 9.96 | -0.34 | 3.46 | -0.24
2 | CC1(C)OCCn2c1nc1c(N3CCOCC3)nc(-c3cnc(N)nc3)nc12 [GDC-0084] (top concentration 10000 nM) | -4.9 | 4.1 | 15 | -0.3 | 3.2 | 11.8 | 5.1 | 6.9 | 6.8 | 8.2 | 5.1 | 6.6 | 20.8 | 9 | 10.9 | 2.5 | 14.4 | 1.3 | 7.5 | 5.1
3 | CC(C)c1cc(-c2n[nH]c(=O)n2-c2ccc3c(ccn3C)c2)c(O)cc1O [Ganetespib] (top concentration 1000 nM) | -8.36 | -0.96 | 2.74 | -3.26 | 0.64 | 3.84 | -0.26 | 2.04 | 4.74 | 1.24 | 1.74 | -5.36 | 3.44 | 1.34 | 2.24 | -2.76 | 1.24 | 1.74 | 4.54 | -1.66
4 | CCc1nc(C(N)=O)c(Nc2ccc(N3CCC(N4CCN(C)CC4)CC3)c(OC)c2)nc1NC1CCOCC1 [Gilteritinib] (top concentration 1000 nM) | -2.52 | -2.52 | -2.52 | 1.78 | -1.62 | 2.28 | -2.12 | -2.42 | -2.52 | 1.88 | -2.42 | -2.52 | 2.58 | 2.38 | 7.38 | -2.52 | 4.38 | -2.52 | 1.58 | -1.32
5 | CCN(CC)Cc1ccc2cc(COC(=O)Nc3ccc(C(=O)NO)cc3)ccc2c1 [Givinostat] (top concentration 1000 nM) | -4.5 | 3.1 | 6.9 | 2.4 | 6.3 | 3.9 | 11.1 | 3.6 | 5.1 | 4.8 | 8.1 | -0.1 | 9.8 | 5 | 3.7 | -1 | 4.4 | 6.8 | 12.9 | 3.9
6 | COCCNCc1ccc(-c2cc3nccc(Oc4ccc(NC(=S)NC(=O)Cc5ccc(F)cc5)cc4F)c3s2)nc1 [Glesatinib] (top concentration 2500 nM) | -1.96 | -1.66 | -1.96 | 0.84 | -0.26 | 9.04 | 2.34 | -1.06 | -1.96 | 0.04 | 7.24 | 2.74 | 3.74 | 0.54 | -0.76 | 0.34 | 14.1 | 0.54 | -1.76 | 0.54
7 | C=CC(=O)N1CCC[C@@H](n2nc(-c3ccc(Oc4ccccc4)cc3)c3c(N)ncnc32)C1 [Ibrutinib] (top concentration 1000 nM) | 0 | 0 | 0.9 | 0 | 1.5 | 1.8 | 3.4 | 0.1 | 2 | 2.2 | 10 | 0.1 | 15 | 0 | 1.2 | 0 | 0 | 2.6 | 9.1 | 1.1
8 | CC[C@H](Nc1ncnc2[nH]cnc12)c1nc2cccc(F)c2c(=O)n1-c1ccccc1 [Idelalisib] (top concentration 10000 nM) | -2.16 | -1.26 | 5.74 | -2.16 | -2.16 | -1.06 | 1.54 | 3.64 | 1.24 | 1.84 | -2.16 | 8.84 | 23.8 | 3.14 | 7.94 | -2.16 | 3.54 | -2.16 | 5.34 | -0.76
9 | O=C(Nc1ccncc1)C(=O)c1cn(Cc2ccc(Cl)cc2)c2ccccc12 [Indibulin] (top concentration 10000 nM) | -2.76 | 6.54 | 8.74 | 1.54 | 14.2 | 12.7 | 6.84 | 6.04 | 16 | 12 | 11.8 | 3.44 | 14.6 | -1.46 | 6.14 | 9.34 | 11.9 | 14.1 | 3.64 | 5.84
